# Data: patent US20030228357A1, “Dry granulated formulations of azithromycin” (Pfizer Inc., priority 2002, published 2003)
# Key:
# Format in all cases: physicochemical
# [1] = Tablet disintegration time, Automatic Disintegration Tester; conditions: Table 2A; Long blend; Oval tooling; distilled water at 37° C.
# Protocol: The disintegration time was determined in distilled water at 37° C. using an Automatic Disintegration Tester (Model ZT72, Erweka USA Inc, Milford, Conn.) for the long blend tablets. Even with extensive blending times with magnesium stearate, reasonably short disintegration times of 15 and 20 seconds were obtained.
# [2] = Tablet hardness, Schleuniger hardness tablet tester; conditions: DCP anhydrous
# Protocol: (§1) All four formulations were compressed on the compaction simulator using either 0.344″×0.688″ oval tooling, or ½″ standard round concave (SRC) tooling. The tablets were tested for hardness (kP scale), using a Schleuniger hardness tablet tester (Dr. Schleuniger Pharmatron AG, Solothurn, Switzerland), and for friability (100 rotations/4 minutes) using a Vanderkamp Friabulator Tablet Tester (Vankel, Cary, N.C., US).
# [3] = Indices of tableting performance (Hiestand) of bulk azithromycin; conditions: forms N, M, G, A milled, F and J unmilled
# Protocol: Indices of tableting performance, for several azithromycin forms, were assessed to identify any mechanical deficiencies or attributes that may affect tablet formulation for these azithromycin forms. This assessment was performed in accordance with the procedures described in “Indices of Tableting, Performance” […] and D. P. Smith, Powder Technology 38 [1984] pp. 145-159. Specifically, the Brittle Fracture Index, BFI, was calculated from the ratio of a material's regular tensile strength to its compromised tensile strength. Strain Index, SI, was determined from the dynamic indentation hardness test. Worst Case Bonding Index was determined by assessing the extent of particle bonding remaining after decompression assuming a very short compression dwell time and a plastic mechanism of particle separation during decompression. Tableting Indices were determined for bulk azithromycin lots of six different crystalline forms, specifically forms N, M, G, A, F and J. Forms N, M and G were milled with a Fitzmill (Model JT, The Fitzpatrick Co., Elmhurst, Ill.) using a 0.027'' screen and knives at high speed in an attempt to match the smaller particle size of milled Form A. Unmilled forms F and J were evaluated “as is” due to their relatively small particle sizes.
# [4] = Density and Carr's Compressibility Index (flowability) of dry blends and dry granulations
# Description: Carr's Compressibility Index was used to evaluate the flowability of the four dry granulations. Carr's Compressibility Index is a simple test to evaluate flowability by comparing both the initial and final (tapped) bulk volumes and the rate of packing down. A useful empirical guide to flow is given by Carr's compressibility index: Compressibility Index(%)=[(tapped density−initial density)/tapped density]×100 […] The procedure is described in Int. J. Pharm. Tech. & Prod. Mfr., 6(3) 10-16, 1985.
# [5] = Tablet hardness, Schleuniger hardness tablet tester; conditions: Table 4D; high drug loading; diluent DCP, dihyd.; modified capsule shape
# [6] = Slug (compact) hardness, Schleuniger hardness tablet tester
# Description: A compaction simulator was used to compress the blends. The compaction simulator was designed as a single station tablet press in which the compression dwell time can be adjusted to simulate different types of tablet presses. All the formulations were slugged on the compaction simulator configured as the Kilian RX-67 press with a dwell time of 0.3145 seconds using […] round flat face tooling. The slugs were then comminuted using a Fitz mill with a 0.125″ screen with knives forward and run at slow speed. […] The slugs were tested for hardness (kP scale), using a Schleuniger hardness tablet tester (Dr. Schleuniger Pharmatron AG, Solothurn, Switzerland).
# [7] = Tablet friability, Vanderkamp Friabulator (100 rotations/4 minutes); conditions: Table 4D; high drug loading; diluent DCP, dihyd.; modified capsule shape
# [8] = as above; conditions: DCP anhydrous
# Protocol: Friability is a standard test known to one skilled in the art. Friability is measured under standardized conditions by weighing out a certain number of tablets (generally 20 tablets or less), placing them in a rotating Plexiglas drum in which they are lifted during replicate revolutions by a radial lever, and then dropped approximately 8 inches. After replicate revolutions (typically 100 revolutions at 25 rpm), the tablets are reweighed and the percentage of formulation abraded or chipped is calculated. The friability of the tablets, of the present invention, is preferably in the range of about 0% to 3%, and values about 1%, or less, are considered acceptable for most drug and food tablet contexts. Friability which approaches 0% is particularly preferred.
# as §1
# [9] = Table 3C, low drug loading (35.2 wt % azithromycin), oval tablets, target weight 750 mg
# [10] = 35.2 wt % azithromycin, dicalcium phosphate anhydrous diluent, Long blend method
# [11] = 35.2 wt % azithromycin, dicalcium phosphate anhydrous diluent, Long blend method, slugged
# [12] = Table 3A, low drug loading: 35.2 wt % azithromycin, 54.8 wt % dicalcium phosphate anhydrous, long blend
# [13] = Table 4B, high drug loading (58.2 wt % azithromycin), diluent DCP, dihyd.
structure (smiles),measurement,setting,value
"CCC1OC(=O)C(C)C(O[C@H]2C[C@@](C)(OC)[C@@H](O)C(C)O2)C(C)[C@@H](OC2OC(C)CC(N(C)C)[C@H]2O)[C@@](C)(O)C[C@@H](C)CN(C)[C@H](C)[C@@H](O)[C@]1(C)O (some centres unmarked) [Form F, azithromycin monohydrate hemi-ethanol solvate]",Mean disintegration Time,[1],20 s
same,Avg Tablet Hardness,"[2]; Table 2A, 35.2 wt % azithromycin, Long blend, Oval tooling, compression force 13.5 kN (A), 19 kN (F)",10.3 kP
same,Avg Hardness,[2]; [9],10.3 kP
same,Brittle Fracture Index (BFI),[3],0.37
same,Strain Index (SI),[3],0.0041
same,Tensile Strength,[3],1.62 Mpa
same,Worst Case Bonding Index (BIw) × 10^2,[3],0.9
same,Dry Blend Carr's Index,[4]; [10],43%
same,Dry Blend density As Is,[4]; [10],0.50 g/cc
same,Dry Blend density Tapped,[4]; [10],0.88 g/cc
same,Granulation Carr's Index,[4]; [11],22%
same,Granulation Density As Is,[4]; [11],0.84 g/cc
same,Granulation Density Tapped,[4]; [11],1.07 g/cc
same,Granulation Carr's Index,[4]; [12],22%
same,Granulation Density As Is,[4]; [12],0.84 g/cc
same,Granulation Density Tapped,[4]; [12],1.08 g/cc
same,Dry Granulation Carr's Index,[4]; [13],27%
same,Dry Granulation Density As Is,[4]; [13],0.63 g/cc
same,Dry Granulation Density Tapped,[4]; [13],0.86 g/cc
same,Avg Tablet Hardness,[5],7.0 kP
same,Avg Slug Hardness,[6]; [10],22.4 kP
same,Avg Slug Hardness,[6]; [12],22 kP
same,Avg Slug Hardness,[6]; [13],9 kP
same,Friability,[7],0.31%
same,Friability,"[8]; Table 2A, 35.2 wt % azithromycin, Long blend, Oval tooling",0.48%
same,Friability,[8]; [9],0.48%
